Laboratory results published in PMC7161706 (Acta Pharmaceutica Sinica. B, 2019).

What was measured:
GuC4H1 = molecular target: T1, GuC4H1 (Glycyrrhiza uralensis, UniProt A0A6B7HXZ5); experiment: yeast feeding, product by HPLC-Q-TOF-MS; assay type: cell-based; settings: 20 μmol/L fed, 30 °C, 12 h; ATR1 reductase in WAT11
T1 sequence (A0A6B7HXZ5 1-505): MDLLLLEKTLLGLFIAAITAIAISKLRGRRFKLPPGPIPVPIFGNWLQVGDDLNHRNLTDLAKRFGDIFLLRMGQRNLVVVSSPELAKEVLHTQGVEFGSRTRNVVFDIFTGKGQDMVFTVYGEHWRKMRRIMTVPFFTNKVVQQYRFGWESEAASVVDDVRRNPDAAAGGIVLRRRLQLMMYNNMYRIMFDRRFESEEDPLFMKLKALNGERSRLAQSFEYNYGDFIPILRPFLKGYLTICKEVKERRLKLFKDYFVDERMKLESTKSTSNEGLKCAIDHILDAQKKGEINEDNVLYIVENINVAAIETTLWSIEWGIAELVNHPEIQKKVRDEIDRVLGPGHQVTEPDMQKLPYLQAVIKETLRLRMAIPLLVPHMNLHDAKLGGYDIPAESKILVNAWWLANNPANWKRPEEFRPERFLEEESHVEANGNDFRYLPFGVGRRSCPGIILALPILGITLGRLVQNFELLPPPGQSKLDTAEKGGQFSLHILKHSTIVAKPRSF

GuPAL1 = GuPAL1 (Glycyrrhiza uralensis, UniProt A0A6B7HYR5); experiment: product by HPLC-Q-TOF-MS; assay type: biochemical; settings: 1 mmol/L substrate, pH 8.0, 30 °C, 10 h
Sequence of GuPAL1 (A0A6B7HYR5 1-783 limits assumed): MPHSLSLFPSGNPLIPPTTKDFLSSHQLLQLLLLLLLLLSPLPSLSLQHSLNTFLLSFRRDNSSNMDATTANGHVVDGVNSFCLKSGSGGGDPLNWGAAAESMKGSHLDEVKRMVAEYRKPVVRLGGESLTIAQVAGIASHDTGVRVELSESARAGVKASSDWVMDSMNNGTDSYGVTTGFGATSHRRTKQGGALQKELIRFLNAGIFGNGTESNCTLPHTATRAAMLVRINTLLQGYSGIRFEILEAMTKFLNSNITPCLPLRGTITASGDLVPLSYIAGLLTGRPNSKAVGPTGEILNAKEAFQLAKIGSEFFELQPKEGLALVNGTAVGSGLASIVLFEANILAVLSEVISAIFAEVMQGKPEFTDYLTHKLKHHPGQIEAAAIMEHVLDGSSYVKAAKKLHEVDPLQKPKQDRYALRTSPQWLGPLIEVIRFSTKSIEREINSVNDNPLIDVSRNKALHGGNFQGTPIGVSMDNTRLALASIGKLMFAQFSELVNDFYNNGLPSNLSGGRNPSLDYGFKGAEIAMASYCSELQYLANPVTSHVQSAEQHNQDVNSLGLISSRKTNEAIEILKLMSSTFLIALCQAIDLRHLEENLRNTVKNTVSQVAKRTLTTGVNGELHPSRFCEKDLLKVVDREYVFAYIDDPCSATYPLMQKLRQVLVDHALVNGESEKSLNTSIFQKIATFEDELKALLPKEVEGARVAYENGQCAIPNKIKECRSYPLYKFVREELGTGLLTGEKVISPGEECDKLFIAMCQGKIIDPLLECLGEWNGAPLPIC

Row | Structure (SMILES) | yeast feeding, product by HPLC-Q-TOF-MS (p-coumaric acid) (GuC4H1) | product by HPLC-Q-TOF-MS (cinnamic acid) (GuPAL1)
1 | O=C(O)/C=C/c1ccccc1 [CiA, cinnamic acid] | GuC4H1 was able to produce p-coumaric acid upon feeding cinnamic acid and galactose | 
2 | N[C@@H](Cc1ccccc1)C(=O)O [Phe, phenylalanine] |  | incubation of the staring substrate phenylalanine with GuPAL1 yielded cinnamic acid
